From PMC12464775, “Selective and Potent Peptide Binders of RNF43 for Wnt Signaling Inhibition” (ACS Central Science, 2025)
Bridge positions count the residues as written; N and C are the ends. Peptide text beside a SMILES is read from it.

Assays:
[1] = target: T1, human RNF43 (Homo sapiens, UniProt Q68DV7); assay: SPR binding of DCPs to immobilized human RNF43 ECD; conditions: for improvement in affinity for RNF43 over the previous generation: SPR KD, each round of affinity maturation versus its parent DCP
T1 construct: ECD of the human RNF43 protein was incubated with EZ-link-NHS-PEG4-biotin; biotin (chemical label, NHS-PEG4-biotin on amines, 1-2 per protein)
T1 sequence (Q68DV7 24-197 limits assumed): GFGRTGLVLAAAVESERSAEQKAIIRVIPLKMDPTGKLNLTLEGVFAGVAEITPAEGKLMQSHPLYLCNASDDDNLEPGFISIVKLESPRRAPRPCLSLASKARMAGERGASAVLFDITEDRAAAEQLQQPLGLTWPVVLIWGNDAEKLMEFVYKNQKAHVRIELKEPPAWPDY
Experimental: ECD of the human RNF43 protein was incubated with EZ-link-NHS-PEG4-biotin (Thermo Fisher, 1:1, 50 μM) for 1 h at room temperature (RT). The reaction was quenched by addition of 10 mM Glycine, followed by dialysis into phosphate buffered saline (PBS) overnight at 4 °C. Finally, the biotinylated protein was analyzed using LC-MS to ensure that each protein is labeled with 1–2 biotin molecules. ,
(§1) SPR measurement was carried out using a Biacore S200 (Cytiva) instrument, with PBS-T (PBS with 0.05% Tween 20, pH 7.4) as the buffer. Biotinylated protein was captured on three sensor channels of Series S SA Sensors (Cytiva). The sensors were then blocked with 0.1 mg/mL biotin. DCPs were injected onto the sensor in a 3× concentration series. The data were double-referenced by subtracting the signal from a sensor channel coated with biotin only and the signal from a buffer injection. For data analysis, binding data were fitted using the manufacturer’s software. ,

[2] = target: T2, mouse RNF43 (Mus musculus, UniProt Q5NCP0); assay: SPR binding of DCPs to mouse RNF43; conditions: independently performed at least three times
T2 sequence (Q5NCP0 24-197 limits assumed): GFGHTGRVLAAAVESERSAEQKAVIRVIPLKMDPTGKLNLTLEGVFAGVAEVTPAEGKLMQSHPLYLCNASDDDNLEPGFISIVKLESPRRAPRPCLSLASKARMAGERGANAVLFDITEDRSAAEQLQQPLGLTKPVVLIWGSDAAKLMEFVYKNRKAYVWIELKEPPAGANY
Experimental: as §1

[3] = target: T3, deglycosylated RNF43 (Homo sapiens, UniProt Q68DV7); assay: SPR binding to deglycosylated RNF43; conditions: biotinylated RNF43 treated with Deglycosylation Mix II, fitted data of representative sensorgram
T3 construct: ECD of the human RNF43 protein was incubated with EZ-link-NHS-PEG4-biotin; biotin (chemical label, NHS-PEG4-biotin)
T3 sequence (Q68DV7 24-197): T1 sequence (Q68DV7 24-197 limits assumed)
Experimental: as §1
Protein deglycosylation was performed on a small scale using Deglycosylation Mix II (P6044, NEB), according to the manufacturer’s instructions. Briefly, the biotinylated RNF43 was incubated with Deglycosylation Mix II for 1 h at RT. Then the reaction mixture was transferred to 37 °C and further incubated overnight. Following incubation, the reaction mixture was analyzed by mobility shift on SDS-PAGE gels. After dialysis, the protein was then used for further applications.

| Compound | KD (h, nM) ([1]; SPR, Biacore S200, biotinylated human RNF43 captured on SA sensor, DCP injected, PBS-T pH 7.4, independently performed at least three times, NB = no binding) | Kd [2] [nM] | KD against deglycosylated RNF43 [3] | improvement in affinity for RNF43 over the previous generation [1] |
| --- | --- | --- | --- | --- |
| CC[C@H](C)[C@H](NC(=O)[C@@H]1CSSC[C@H](NC(=O)[C@@H](NC(=O)[C@H](Cc2c[nH]cn2)NC(=O)[C@H](CO)NC(=O)[C@H](Cc2ccc(O)cc2)NC(=O)[C@H](CC(=O)O)NC(=O)[C@H](Cc2c[nH]cn2)NC(=O)[C@@H]2CSSC[C@H](NC(=O)[C@H](CCC(N)=O)NC(=O)[C@@H](N)CCC(=O)O)C(=O)N[C@@H]([C@@H](C)O)C(=O)N[C@@H](CO)C(=O)N[C@@H]([C@@H](C)O)C(=O)N[C@@H](CCC(N)=O)C(=O)N[C@@H](CC(=O)O)C(=O)N[C@@H](CC(C)C)C(=O)N2)C(C)C)C(=O)N[C@H]2CSSC[C@H](NC(=O)[C@H](CC(=O)O)NC(=O)[C@H](CC(C)C)NC(=O)[C@@H]3CCCN3C(=O)[C@H](Cc3c[nH]c4ccccc34)NC2=O)C(=O)N[C@@H](CCCNC(=N)N)C(=O)N[C@@H](Cc2c[nH]c3ccccc23)C(=O)N[C@@H](C)C(=O)N[C@@H](C(C)C)C(=O)N[C@@H](CCCCN)C(=O)N[C@@H](Cc2ccc(O)cc2)C(=O)N[C@@H](CCC(N)=O)C(=O)N[C@@H](Cc2c[nH]c3ccccc23)C(=O)N[C@@H](Cc2ccccc2)C(=O)N[C@@H](Cc2c[nH]c3ccccc23)C(=O)N[C@@H](CC(=O)O)C(=O)N1)C(=O)NCC(=O)O [GUR-1.6.12.2] (H-EQCTSTQDLCHDYSHVCCWPLDCRWAVKYQWFWDCIG-OH; disulfide 3-10, 17-35, 18-23) | single-digit nanomolar | 2.1 ± 0.2 | remained unchanged |  |
| CC[C@H](C)[C@H](NC(=O)[C@@H]1CSSC[C@@H]2NC(=O)[C@H](CC(=O)O)NC(=O)[C@H](CC(C)C)NC(=O)[C@H](Cc3ccc(O)cc3)NC(=O)[C@H](Cc3ccc(O)cc3)NC(=O)[C@@H]3CCCN3C(=O)[C@H]([C@@H](C)CC)NC(=O)[C@@H]3CSSC[C@H](NC(=O)[C@H](CC(=O)O)NC(=O)[C@H](CC(C)C)NC(=O)[C@@H]4CCCN4C(=O)[C@H](Cc4c[nH]c5ccccc45)NC(=O)[C@H](CSSC[C@H](NC(=O)[C@@H](N)CCC(N)=O)C(=O)N[C@@H](C(C)C)C(=O)N[C@@H](CCCCN)C(=O)N[C@@H](CCCCN)C(=O)N[C@@H](CC(=O)O)C(=O)N[C@@H](CCC(=O)O)C(=O)N[C@@H](CC(C)C)C(=O)N3)NC2=O)C(=O)N[C@@H](CCCNC(=N)N)C(=O)N[C@@H](Cc2c[nH]c3ccccc23)C(=O)N[C@@H](C)C(=O)N[C@@H](C(C)C)C(=O)N[C@@H](CCCCN)C(=O)N[C@@H](Cc2ccc(O)cc2)C(=O)N[C@@H](CCC(N)=O)C(=O)N[C@@H](Cc2c[nH]c3ccccc23)C(=O)N[C@@H](Cc2ccccc2)C(=O)N[C@@H](Cc2c[nH]c3ccccc23)C(=O)N[C@@H](CC(=O)O)C(=O)N1)C(=O)NCC(=O)O [GUR-1.6.12] (H-QCVKKDELCIPYYLDCCWPLDCRWAVKYQWFWDCIG-OH; disulfide 2-17, 9-22, 16-34; N-terminus assumed) |  |  |  | slightly improved |
| CC[C@H](C)[C@H](NC(=O)[C@@H]1CSSC[C@@H]2NC(=O)[C@H](CC(=O)O)NC(=O)[C@H](CC(C)C)NC(=O)[C@H](Cc3ccc(O)cc3)NC(=O)[C@H](Cc3ccc(O)cc3)NC(=O)[C@@H]3CCCN3C(=O)[C@H]([C@@H](C)CC)NC(=O)[C@@H]3CSSC[C@H](NC(=O)[C@H](CCC(=O)O)NC(=O)[C@H](CC(C)C)NC(=O)[C@@H]4CCCN4C(=O)[C@H](CCC(=O)O)NC(=O)[C@H](CSSC[C@H](NC(=O)[C@@H](N)CCC(N)=O)C(=O)N[C@@H](C(C)C)C(=O)N[C@@H](CCCCN)C(=O)N[C@@H](CCCCN)C(=O)N[C@@H](CC(=O)O)C(=O)N[C@@H](CCC(=O)O)C(=O)N[C@@H](CC(C)C)C(=O)N3)NC2=O)C(=O)N[C@@H](CCCNC(=N)N)C(=O)N[C@@H](Cc2c[nH]c3ccccc23)C(=O)N[C@@H](C)C(=O)N[C@@H](C(C)C)C(=O)N[C@@H](CCCCN)C(=O)N[C@@H](Cc2ccc(O)cc2)C(=O)N[C@@H](CCC(N)=O)C(=O)N[C@@H](Cc2c[nH]c3ccccc23)C(=O)N[C@@H](Cc2ccccc2)C(=O)N[C@@H](Cc2c[nH]c3ccccc23)C(=O)N[C@@H](CC(=O)O)C(=O)N1)C(=O)NCC(=O)O [GUR-1.6] (H-QCVKKDELCIPYYLDCCEPLECRWAVKYQWFWDCIG-OH; disulfide 2-17, 9-22, 16-34; N-terminus assumed) |  |  |  | 10 fold |
